Data reported in ChEMBL document CHEMBL1862790, “Optimisation of fenarimol series for the treatment of Chagas disease”.

Columns and labels:
Trypanosoma cruzi [1] = test: microbe, parasite or virus in culture; format: functional, organism-based, Tulahuen LacZ, Clone C4
L6 = test: (§1) DNDI: Cytotoxicity against L-6 rat myoblasts from skeletal muscle cells; conditions: L6 rat skeletal muscle myoblast cells
Trypanosoma cruzi [2] = test: microbe, parasite or virus in culture; format: functional, Tulahuen LacZ, Clone C4
[3] = as §1
[4] = Trypanosoma cruzi, Tulahuen LacZ, Clone C4
[5] = L6 rat skeletal muscle myoblast cells

SMILES	IC50 (Trypanosoma cruzi [1]; [4]) [µM]	IC50 (L6) [µM]	IC90 (Trypanosoma cruzi [2]; [4]) [µM]	IC50 (Trypanosoma cruzi [1]) [µM]	IC90 (Trypanosoma cruzi [2]) [µM]	IC50 [3, 5] [µM]	IC50 ([3]; l6, IC50) [µM]
OC(c1ccc(Cl)cc1)(c1ccc(Cl)cc1)c1cccnc1	0.09	49	27				
Cc1ccc(C(O)(c2ccc(Cl)cc2)c2cccnc2)cc1 (stereo unspecified)	0.017	61.2	0.06				
OC(c1ccc(Cl)cc1)(c1cccnc1)c1ccc(C(F)(F)F)cc1F (stereo unspecified)	0.021	57.4	0.07				
O=S(=O)(c1ccccc1)N1CCN(C(c2ccc(Cl)cc2)c2cccnc2)CC1 (stereo unspecified)	0.0085	42.7	0.039				
OC(c1ccc(C(F)(F)F)cc1)(c1ccc(C(F)(F)F)cc1)c1cccnc1	0.0149	50.6	0.038				
Fc1cc(Cl)ccc1C(c1cncnc1)N1CCN(c2ccccc2)CC1 (stereo unspecified)	0.078	62.7	0.27				
O=S(=O)(c1ccc(Cl)cc1)N1CCN(C(c2ccc(Cl)cc2)c2cccnc2)CC1 (stereo unspecified)	0.024	23	0.097				
CC(C)CNC(c1ccc(Cl)cc1)(c1cccnc1)c1ccccc1Cl (stereo unspecified)	0.606	59.2	1.32				
CN(C)c1ccc(C(O)(c2ccc(C(F)(F)F)cc2)c2cccnc2)cc1 (stereo unspecified)	0.006	59.1	0.028				
OC(c1cccnc1)(c1ccc(Cl)cc1F)c1ccc(Cl)cc1F	0.016	56.3	0.036				
Fc1cc(Cl)ccc1C(c1cccnc1)N1CCN(c2ncccn2)CC1 (stereo unspecified)	0.026	59	0.092				
COc1ccc(C(O)(c2ccc(Cl)cc2)c2cccnc2)cc1 (stereo unspecified)	0.04	68.1	0.18				
COc1ccccc1N1CCN(C(c2cncnc2)c2ccc(Cl)cc2F)CC1 (stereo unspecified)	0.065	59.8	0.19				
O=C(C1CCCCC1)N1CCC(NC(c2ccc(C(F)(F)F)cc2)c2cnccn2)CC1 (stereo unspecified)		92.4		0.25	0.86		
OC(c1ccc(Cl)cc1)(c1ccc(Br)cc1)c1cccnc1 (stereo unspecified)	0.031	57	0.079				
CC(C)Oc1ccc(C(O)(c2ccc(C(F)(F)F)cc2)c2cccnc2)cc1 (stereo unspecified)	0.00373	47.6	0.007				
CC(C)Oc1ncc(C(O)(c2cccnc2)c2ccc(Cl)cc2F)cn1 (stereo unspecified)	0.0077	89.5	> 0.01				
COc1ccccc1N1CCN(C(c2ccc(Cl)cc2)c2cccnc2)CC1 (stereo unspecified)	0.02	61.1	0.042				
CC(C)(C)OC(=O)N1CCN(C(c2cccnc2)c2ccc(Cl)cc2F)CC1 (stereo unspecified)	0.02	43.5	0.094				

SMILES	IC50 (Trypanosoma cruzi [1]; [4]) [µM]	IC50 (L6) [µM]	IC90 (Trypanosoma cruzi [2]; [4]) [µM]	IC50 (Trypanosoma cruzi [1]) [µM]	IC90 (Trypanosoma cruzi [2]) [µM]	IC50 [3, 5] [µM]	IC50 ([3]; l6, IC50) [µM]
CC(C)C(=O)Nc1ncc(C(O)(c2ccc(Cl)cc2)c2cccnc2)s1 (stereo unspecified)	0.017	56.6	0.088				
OC(c1ccc(Cl)cc1)(c1ccc(Br)cc1)c1cncnc1 (stereo unspecified)	0.144	58.7	0.46				
OC(c1ccc(Cl)cc1)(c1cccnc1)c1cccc(Br)c1 (stereo unspecified)	0.054	54.1	0.08				
OC(c1ccc(Cl)cc1)(c1ccc(C(F)(F)F)cc1)c1cccnc1 (stereo unspecified)	0.0082	56.4	0.03				
OC(c1ccc(Cl)cc1)(c1cccnc1)c1ccccc1Br (stereo unspecified)	0.076	55.2	0.172				
OC(c1ccc(Br)cc1)(c1ccc(C(F)(F)F)cc1)c1cccnc1 (stereo unspecified)	0.02	54.7	0.03				
COc1ccccc1N1CCN(C(c2ccc(C(F)(F)F)cc2)c2cnccn2)CC1 (stereo unspecified)	0.24	61.7	0.42				
COc1ccccc1N1CCN(C(c2ccc(OC(C)C)cc2)c2cccnc2)CC1 (stereo unspecified)	0.028	77.5	0.09				
O=C(c1ccccc1)N1CCN(C(c2cccnc2)c2ccc(Cl)cc2F)CC1 (stereo unspecified)	0.07	68.6	0.22				
Clc1ccc(C(c2cccnc2)c2ccccc2Cl)cc1 (stereo unspecified)	0.23	62.6	2.57				
COc1cccc(C(O)(c2ccc(Cl)cc2)c2cccnc2)c1 (stereo unspecified)	0.061	85.6	0.315				
OC(c1ccc(Cl)cc1)(c1cccnc1)c1ccc(F)cc1F (stereo unspecified)	0.0164	70.2	0.029				
NC(c1ccc(Cl)cc1)(c1cccnc1)c1ccccc1Cl (stereo unspecified)	0.09	76	5.05				
N#CC(c1ccc(Cl)cc1)(c1cccnc1)c1ccccc1Cl (stereo unspecified)	0.05	56.8	0.22				
CC(C)(C)OC(=O)N1CCN(C(c2cncnc2)c2ccc(Cl)cc2F)CC1 (stereo unspecified)	0.024	63.9	0.42				
Cc1ccc(C(O)(c2ccc(OC(C)C)cc2)c2cccnc2)c(F)c1 (stereo unspecified)	0.0032	62.6	0.013				
O=C(C1CCCCC1)N1CCN(C(c2cccnc2)c2ccc(Cl)cc2F)CC1 (stereo unspecified)	0.028	61.7	0.2				
Fc1cc(Cl)ccc1C(c1cccnc1)N1CCN(c2ccccc2)CC1 (stereo unspecified)	0.018	57.6	0.04				
OC(c1ccc(Cl)cc1)(c1cccnc1)c1ccccc1C(F)(F)F (stereo unspecified)	0.122	59.2					

SMILES	IC50 (Trypanosoma cruzi [1]; [4]) [µM]	IC50 (L6) [µM]	IC90 (Trypanosoma cruzi [2]; [4]) [µM]	IC50 (Trypanosoma cruzi [1]) [µM]	IC90 (Trypanosoma cruzi [2]) [µM]	IC50 [3, 5] [µM]	IC50 ([3]; l6, IC50) [µM]
CC(C)Oc1ccc(C(O)(c2ccc(OC(C)C)cc2)c2cccnc2)cc1	0.016	61.4	0.025				
Clc1ccc(C(c2cccnc2)N2CCN(c3ccccc3)CC2)cc1 (stereo unspecified)	0.034	67.3	0.084				
OC(c1ccc(C(F)(F)F)cc1)(c1cccnc1)c1cc2ccccc2s1 (stereo unspecified)	0.02	58.7	0.11				
CC(C)Oc1ccc(C(O)(c2cccnc2)c2ccc(Cl)cc2F)cc1 (stereo unspecified)	0.0013	56	0.003				
FC(F)(F)c1ccc(C(NC2CCN(c3nccs3)CC2)c2cccnc2)cc1 (stereo unspecified)		54.9		0.0095	0.029		
Clc1ccc(C(c2ccc(Cl)cc2)c2cncnc2)cc1	0.682	70.1	6.78				
OC(c1ccc(Cl)cc1)(c1ccc(Cl)cc1)c1cncnc1	0.224	47.7					
OC(c1ccc(Cl)cc1)(c1cccnc1)c1cccc(C(F)(F)F)c1 (stereo unspecified)	0.067	60.4	0.162				
CC1=C(C(=O)Nc2ccccc2)SCCO1 [CARBOXIN]	22.4		57.5			> 100	
COc1nc(C)nc(NC(=O)NS(=O)(=O)c2ccccc2Cl)n1 [CHLORSULFURON]	45		100			> 100	
Cc1ccc(-c2c(Cl)nc(C#N)n2S(=O)(=O)N(C)C)cc1 [Cyazofamid]	47.2		> 100			74	
CCCCc1c(C)nc(NCC)[nH]c1=O [ETHIRIMOL]	> 100		100			> 100	
Cc1occc1C(=O)Nc1ccccc1 [FENFURAM]	75		> 100			> 100	
CC(C)NC(=O)N1CC(=O)N(c2cc(Cl)cc(Cl)c2)C1=O [IPRODIONE]	49		> 100			> 100	
CC1CS(=O)(=O)CCN1/N=C/c1ccc([N+](=O)[O-])o1 (stereo unspecified) [NIFURTIMOX]	0.23		0.82				> 100
OC(c1ccc(F)cc1)(c1cncnc1)c1ccccc1Cl (stereo unspecified) [NUARIMOL]	1.14		19.5			> 100	
CC1=C(C(=O)Nc2ccccc2)S(=O)(=O)CCO1 [OXYCARBOXIN]	65.1		> 100			> 100	
COC(=O)N(OC)c1ccccc1COc1ccn(-c2ccc(Cl)cc2)n1 [PYRACLOSTROBIN]	6.46		> 10			43.4	
